Patent US20250312320A1, “METHOD AND TREATMENT FOR OSTEOARTHRITIS AND DISEASES OF CHONDROCYTE HYPERTROPHY” (The Royal Veterinary College, priority 2022, published 2025)
“Also recorded” adds a separate entry of the source.

Key:
ATDC5 micromasses = experiment: Epigenetic library screen on miniaturised ATDC5 micromasses (alcian blue / alizarin red); format: cell-based, mouse
Description: An epigenetic library consisting of 226 known epigenetic modulator compounds was used to screen against ATDC5 high density micromass cultures to identify any compounds that have an inhibitory effect on matrix mineralisation (catabolic chondrocyte) whilst maintaining and/or promoting healthy extracellular matrix deposition (anabolic chondrocyte). The opposite may be used for identifying molecules that accelerate endochondral ossification for fracture repair i.e. promotes matrix mineralisation.
In the developed screening method, 5.4×10^4 cells in a total volume of 2 μl standard growth media (DMEM-F12, 5% FBS, 1% Ab/Am 10 μg/ml human transferrin, 3×10^−8 M sodium selenite) were seeded onto single wells of a 96-well plate and incubated at 37° C., 5% CO2 in a humidified incubator for 2 hours to allow for cell adherence. 100 μl of differentiation media DMEM-F12, 5% FBS, 1% Ab/Am, 5 μg/ml human transferrin, 1×ITS) containing a single compound was added to each well.
Plates were seeded in duplicate to allow for observation each compound has on glycosaminoglycan and mineral deposition at the end of the culture. This enabled for one 96-well plate to screen up to 96 compounds individually. Multiple plates were set up at the same time allowing the entire library to be screened in parallel. […]
On day 14, culture plates were fixed with 95% ice-cold methanol for 25 minutes and each compound treated well stained with either 1% alcian blue pH 2.5, a stain for glycosaminoglycans indicative of healthy ECM or 1% alizarin red pH 4.2, a stain for mineralisation (calcium) indicative of chondrocyte hypertrophy observed in cartilage disease. Alcian blue stained wells were leached with 8M guanidine hydrochloride and alizarin red leached with 10% cetylpyridinium chloride to quantify staining by absorbance 650 nm and 570 nm, respectively. Leached stain absorbances were plotted on GraphPad Prism for each compound for both alizarin red and alcian blue. To identify hits, the alcian blue:alizarin red ratio was plotted and readings higher than the control group ratios were classified as hits. […]

ATDC5 micromass = ATDC5 micromass treated with CDK8i: qPCR gene expression and morphology; format: cell-based, mouse; settings: 1 μM
Experimental: ATDC5 and primary equine chondrocytes were cultured in micromasses and treated with a CDK8i to determine effects on gene expression during chondrogenic differentiation.
In more detail, for ATDC5 cells, 2.7×10^5 cells were seeded in a 10 μl droplet onto a 24-well plate and cultured in differentiation media supplemented with CDK8i for 7 days before switching to mineralisation media supplemented with CDK8i for a further 7 days to induce hypertrophic differentiation as previous. The CDK8i was either 1 μM BI1347 or 100 nM MSC2530818.
On days 7 and 14 DMSO control and BI1347/MSC2530818 treated ATDC5 micromasses were lysed in triplicate and RNA extracted using Reliaprep RNA miniprep system (Promega) before cDNA synthesis using High-capacity reverse transcriptase kit (Applied BioScience). Quantitative PCR (qPCR) analysis was carried out using 10 ng cDNA in iTaq mastermix (BioRad) according to manufacturer's instructions. Primer sequences for qPCR reactions are shown in Table 1. ΔCt values of genes expressed were normalised to reference housekeeper genes and subsequently used to generate relative expression. Significance was observed by conducting unpaired T-test with Welch correction.

[1] = tested on: THP-1 derived macrophages; experiment: LPS stimulated THP-1 derived macrophages: IL-1β ELISA of supernatant; format: cell-based, human; settings: 100 nM, LPS 24 hrs
Experimental: THP-1 monocytes were differentiated into macrophages via treatment with 50 ng/ml phorbol 12-myristate 13-acetate (PMA) in THP-1 growth media (RPMI-1640, 100 μg/ml Primocin, 10% FBS, 0.05 mM β-mercaptoethanol) for 48 hours. Macrophages were then washed twice to remove PMA containing media before a 1-hour pretreatment with 1 μM BI1347 or 100 nM MSC2530818. Inflammatory stimulation was then initiated via the addition of lug/ml lipopolysaccharide (LPS) for 24 hours in the presence of 1 μM BI1347 or 100 nM MSC2530818. Gene expression analysis was subsequently carried out as previously outlined. For MSC2530818 treated/LPS stimulated cells, media supernatant was used for IL-1β cytokine analysis quantification via ELISA (PeproTech, ABTS Human IL-1β development ELISA) as per manufacturer instructions.

[2] = tested on: zebrafish embryo endochondral jaw bone; experiment: Zebrafish jaw analysis of hypertrophic zones; format: in vivo, zebrafish (Danio rerio); settings: 50 nM or 100 nM, 24 hpf to 5 dpf, vs DMSO
Experimental: Several bones during zebrafish (Danio rerio) craniofacial development exist via endochondral ossification, thus the developing zebrafish embryo is a useful in vivo model of chondrocyte hypertrophy (Dietrich et al. (2021) “Skeletal Biology and Disease Modeling in Zebrafish”. J Bone Miner Res, 36:436-458. https://doi.org/10.1002/jbmr.4256). Embryos at 24 hpf were cultured in the E3 water ([…], 0.17 mM KCl, 0.33 mM CaCl2, 0.33 mM MgSO4, and 0.1% Methylene Blue) in the presence of 50 nM or 100 nM MSC2530818 or DMSO control up until 5 dpf, with E3 water refreshed every 2 days. At 5 dpf embryos were fixed in 4% PFA overnight at 4° C. before washing in 70% EtOH for 10 mins followed by 50% EtOH for a further 10 mins. Specimens were then incubated in alcian blue stain (0.1% Alcian blue, 70% EtOH, 30% Glacial acetic acid) overnight with gentle agitation before 30 min washes in 100, 80, 70% EtOH and 0.1% PBST. Specimens were digested for 1 hour in enzyme solution (10 mg/ml trypsin in 30% saturated sodium tetraborate) followed by a 1-hour incubation in bleaching solution (3% hydrogen peroxide, 1% potassium hydroxide). Specimens were washed in 0.1% PBST and stored in 70% glycerol at 4° C. until imaging. Jaw sections were dissected and the number of enlarged cells within the entopterygoid/ceratohyal region were counted.

[3] = compound present 14 days, compared to negative control BI1374 and DMSO

SMILES	glycosaminoglycan (GAG) deposition (alcian blue) (ATDC5 micromasses; [3])	mineralisation (alizarin red) (ATDC5 micromasses; [3])	alcian blue:alizarin red absorbance ratio (hit identification) (ATDC5 micromasses; vs window of DMSO control ratios)	micromass morphology (ATDC5 micromass; 14 days, vs DMSO)	COL2A1 expression, increase vs DMSO (ATDC5 micromass; day 7)	Mediator complex gene expression vs DMSO (ATDC5 micromass; day 7)	ACAN expression, increase vs DMSO (ATDC5 micromass; day 7 (N.S))	ACAN expression, increase vs DMSO (ATDC5 micromass; day 14)	COL10A1 expression, decrease vs DMSO (ATDC5 micromass; day 14)	IL1β production / secretion into culture media, reduction [1]	size of the hypertrophic region and number of enlarged/hypertrophic cells [2]
CN(C)C(=O)Cn1cc(-c2ccc(-c3cncc4ccccc34)cc2)cn1 [BI1347]	promotes glycosaminoglycan (GAG) deposition	reduces mineralisation	modulator of endochondral ossification	visible increase in extracellular matrix production; also recorded: visibly larger, more rounded and resembled the appearance of healthy cartilage	4.7 fold	robustly downregulated; also recorded: overall reduction	6 fold	6 fold	5.3 fold	–	–
Cc1n[nH]c2ncc(C(=O)N3CCC[C@H]3c3ccc(Cl)cc3)cc12 [MSC2530818]	–	–	–	–	–	–	–	–	–	1.5 fold	dose dependent reduction
